How the values were obtained:
Format in all cases: cell-based
[1] = test system: Staphylococcus aureus; test: Minimum Biofilm Inhibition Concentration (MBIC) assay, biofilm formation, crystal violet; details: IC50 of compound as % of IC50 of ajoene in the same experiment; <100% more effective than ajoene
Protocol: (§1) Compounds were assayed for their ability to inhibit S. aureus or P. aeruginosa biofilm formation as follows.
(§2) All compounds were prepared as a 30 mM stock in DMSO and diluted in tryptic soy broth (TSB) to 48 μM (S. aureus) or 144 μM (P. aeruginosa). The compounds were further serially diluted two-fold from 48 μM to 0.75 μM (S. aureus) or 144 μM to 2.3 μM (P. aeruginosa) and added to a 96-well plate at 100 μl per well. Overnight cultures of bacteria were diluted to an OD600=0.07 in fresh TSB and 100 μl of the diluted bacterial culture was added to the compound containing wells. The bacteria were incubated in the presence of the compounds overnight at 37° C. After incubation, the planktonic bacteria were removed by three washes using H2O and the remaining biofilm was stained using crystal violet and quantified photometrically at A570. Absorbances corresponding to biofilm mass were plotted versus compound concentration and IC50 values were calculated. Reference: O'Toole G A, Microtiter Dish Biofilm Formation Assay J. Vis. Exp (2011).
(§3) MBIC assays of the compounds are carried out alongside ajoene for reference and standardization. The IC50 of ajoene against S. aureus and P.aeruginosa is well-defined and reproducible allowing ajoene to serve as an effective control for the experiment. As such, the IC50 calculated for the tested compounds are compared to the IC50 of ajoene in every experiment and are therefore represented as % of ajoene.

[2] = test system: Pseudomonas aeruginosa; test: as above; details: IC50 of compound as % of IC50 of ajoene in the same experiment; <100% more effective than ajoene
Protocol: as §1, §2, §3

[3] = test system: P. aeruginosa biofilms; test: Inhibition of respiration/viability of established biofilms grown in artificial sputum medium (TTZ viability assay), with tobramycin; details: established 24 h biofilms in ASM, compound 5 hours, then 10 μg/ml tobramycin 16 hours; FIG. 3
Protocol: Compound B was tested for its efficacy to inhibit P. aeruginosa biofilms in artificial sputum medium (ASM) as follows. Overnight cultures of P. aeruginosa were re-seeded to an OD595=0.07 and further diluted 1:100 in ASM and grown for 24 hours at 37° C. to allow for biofilm formation. Compound B was prepared as 30 mM stock in 100% DMSO and established biofilms were treated with the compound at increasing concentrations or left untreated for 5 hours at 37° C. All samples were then treated with 10 μg/ml tobramycin for 16 hours at 37° C. The artificial sputum was liquified using sputasol. The respiratory potential of the biofilms was quantified using a tetrazolium chloride (2,3,5-triphenyl tetrazolium chloride (TTZ)) viability assay.

[4] = test system: P. aeruginosa; test: Bacterial Exudate Scratch Test (BEST), HaCaT monolayer exposed to P. aeruginosa exudate
Protocol: (§4) Bacterial cultures (S. aureus and P. aeruginosa) were grown prophylactically with test compounds for 24 hours and exudates were collected.
(§5) Microorganisms were prepared by growing in tryptone soy broth (TSB) at 37° C., 150 rpm for 16 hours.
(§6) The exudates were obtained by first placing in a 24-well plate, 1 mL of each compound treated media and vehicle control media in triplicate. 1 mL of untreated TSB was then added to 3 wells for an untreated control and 2 mL TSB was added to 3 wells for sterility control. Except for the sterility control wells, 1 mL of bacterial suspension was added to each well and mixed well. The plate was then incubated in a humidified incubator at 37° C. for 24 hours at 75 rpm. Following the appropriate incubation time, the entire contents of the well were removed and transferred into a sterile centrifuge tube. The tube was then centrifuged at 10,000 rpm for 10 minutes at 4° C. to pellet the biomass. The supernatant was filtered using a Luer Lock […] filter into another sterile tube. The exudate was aliquoted into 500 μl aliquots in 0.5 mL PCR tubes. […]
(§7) The plates were incubated for 20 hours at 37° C., 5% CO2 and images were taken at the time points as required. Scratch ‘size’ was analysed using ImageJ software.
(§8) The rate of cellular proliferation of the HaCaT cells is calculated at 20 hours as a percentage of the initial scratch size at 0 hours.

[5] = test system: S. aureus; test: Bacterial Exudate Scratch Test (BEST), HaCaT monolayer exposed to S. aureus exudate
Protocol: as §4, §5, §6, §7, §8

SMILES | S. aureus MBIC: % of Ajoene positive control IC50 [1] | P. aeruginosa MBIC: % of Ajoene positive control IC50 [2] | also measured
C=CCSSc1cccc(CS(=O)(=O)Cc2ccco2)c1 | 22 % of Ajoene | 100 % of Ajoene | –
CCC(C)CSSc1cccc(CS(=O)(=O)Cc2ccccc2)c1 (centres unmarked) | 11 % of Ajoene | 94 % of Ajoene | –
[O-][S+](Cc1ccccc1)Cc1cccc(SSCc2ccc(C(F)(F)F)cc2)c1 (centres unmarked) | 34 % of Ajoene | 32 % of Ajoene | –
COc1ccc(CSSc2cccc(C[S+]([O-])Cc3ccccc3)c2)cc1 (centres unmarked) | 43 % of Ajoene | 20 % of Ajoene | –
C=CCSSc1cccc(CS(=O)(=O)Cc2ccccc2)c1 [drawing 76] | 5 % of Ajoene | 82 % of Ajoene | –
CSSc1cccc(CS(=O)(=O)Cc2ccccc2)c1 [Compound B, 1-(methyldisulfanyl)-3-(phenylmethanesulfonylmethyl)benzene] | – | – | effect on efficacy of tobramycin to inhibit biofilm respiration/viability [3]: enhances the efficacy of tobramycin
[O-][S+](Cc1ccccc1)Cc1cccc(SSCc2ccccc2)c1 (centres unmarked) | 62 % of Ajoene | 21 % of Ajoene | –
C=CCSSc1cccc(CS(=O)(=O)Cc2ccccc2)c1 [drawing 83] | – | – | scratch area at 20 hours (percentage of initial scratch size at 0 hours) ([4]; HaCaT exposed to P. aeruginosa exudate pre-treated with test compound (250 μM), vehicle 109%, no exudate 9%): 64%; effect on inhibition of scratch closure in HaCaT cells ([4]; prophylactic (pre-biofilm) treatment of P. aeruginosa with 250 μM test compound, versus vehicle pre-treatment, FIG. 5): reduces the inhibition of scratch closure; scratch area at 20 hours ([5]; HaCaT exposed to S. aureus exudate pre-treated with test compound (125 pM), vehicle 66% remaining): almost complete closure of the scratch area; effect on inhibition of scratch closure in HaCaT cells ([5]; prophylactic (pre-biofilm) treatment of S. aureus with 125 pM test compound, versus vehicle pre-treatment, FIG. 4): completely rescues the inhibition of scratch closure
O=S(=O)(Cc1ccccc1)Cc1cccc(SSCc2ccc(F)cc2)c1 | 69 % of Ajoene | 35 % of Ajoene | –

Continued, in another order:

S. aureus MBIC: % of Ajoene positive control IC50 [1] | P. aeruginosa MBIC: % of Ajoene positive control IC50 [2] | SMILES | also measured
90 % of Ajoene | 32 % of Ajoene | CC(C)CSSc1cccc(C[S+]([O-])Cc2ccccc2)c1 (centres unmarked) | –
89 % of Ajoene | 76 % of Ajoene | C=CCSSc1ccccc1C[S+]([O-])Cc1ccccc1 (centres unmarked) | –
4 % of Ajoene | 58 % of Ajoene | COc1ccc(CSSc2ccccc2C[S+]([O-])Cc2ccccc2)cc1 (centres unmarked) | –
89 % of Ajoene | 39.9 % of Ajoene | [O-][S+](Cc1ccccc1)Cc1ccccc1SSCc1ccccc1 (centres unmarked) | –
22.5 % of Ajoene | 15 % of Ajoene | CCC(C)CSSc1cccc(C[S+]([O-])Cc2ccccc2)c1 (centres unmarked) | –
